PubChem BioAssay (NCI)
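48-hour exposure; five concentrations; linearly interpolated endpoints. GI50 = concentration required for 50% inhibition of growth. Definition used: TGI = concentration required for complete inhibition of growth.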

What was measured:
Assay in all cases: growth of human tumour cells (NCI), 48 h
HCC-2998 colon = system: HCC-2998 colon
SW-620 colon = system: SW-620 colon
MCF7 breast = system: MCF7 breast
RXF 393 renal = system: RXF 393 renal
UACC-257 melanoma = system: UACC-257 melanoma
T-47D breast = system: T-47D breast
SK-OV-3 ovarian = system: SK-OV-3 ovarian
BT-549 breast = system: BT-549 breast
CCRF-CEM leukemia = system: CCRF-CEM leukemia
M14 melanoma = system: M14 melanoma
EKVX NSCLC = system: EKVX NSCLC
UACC-62 melanoma = system: UACC-62 melanoma
OVCAR-3 ovarian = system: OVCAR-3 ovarian
MALME-3M melanoma = system: MALME-3M melanoma
KM12 colon = system: KM12 colon
HCT-116 colon = system: HCT-116 colon
SK-MEL-28 melanoma = system: SK-MEL-28 melanoma
786-0 renal = system: 786-0 renal
A549 NSCLC = system: A549 NSCLC
CAKI-1 renal = system: CAKI-1 renal
NCI-H226 lung = system: NCI-H226 lung
RPMI-8226 leukemia = system: RPMI-8226 leukemia
SNB-19 CNS = system: SNB-19 CNS
HCT-15 colon = system: HCT-15 colon
SR leukemia = system: SR leukemia
ACHN renal = system: ACHN renal

Work on `CN1CCN(Cc2ccc(NC(=O)c3cncc(C#Cc4cnc5ccc(N6CCSCC6)nn45)c3)cc2C(F)(F)F)CC1` yielded a GI50 (HCC-2998 colon) of 0.245 µM, a TGI (HCC-2998 colon) of 0.878 µM and a GI50 (SW-620 colon) of 0.153 µM. The TGI (SW-620 colon) was 1.09 µM, the GI50 (MCF7 breast) was 0.0459 µM and the TGI (MCF7 breast) was 0.598 µM. The GI50 (RXF 393 renal) was 0.141 µM, the TGI (RXF 393 renal) was 0.295 µM and the GI50 (UACC-257 melanoma) was 0.599 µM. The TGI (UACC-257 melanoma) was 2.34 µM, the GI50 (T-47D breast) was 1.4 µM and the TGI (T-47D breast) was 3.89 µM. For the same molecule, the GI50 (SK-OV-3 ovarian) was 0.656 µM, the TGI (SK-OV-3 ovarian) was 2.06 µM and the GI50 (BT-549 breast) was 0.354 µM. The TGI (BT-549 breast) was 1.24 µM, the GI50 (CCRF-CEM leukemia) was 0.303 µM and the GI50 (M14 melanoma) was 0.156 µM. For the same molecule, the TGI (M14 melanoma) was 0.76 µM, the GI50 (EKVX NSCLC) was 0.1 µM and the TGI (EKVX NSCLC) was 0.877 µM. It also gave a GI50 (UACC-62 melanoma) of 0.468 µM, a TGI (UACC-62 melanoma) of 1.93 µM and a GI50 (OVCAR-3 ovarian) of 0.322 µM. The TGI (OVCAR-3 ovarian) was 1.29 µM, the GI50 (MALME-3M melanoma) was 0.202 µM and the TGI (MALME-3M melanoma) was 1.07 µM. It also gave a TGI (KM12 colon) of 0.34 µM, a GI50 (HCT-116 colon) of 0.112 µM and a TGI (HCT-116 colon) of 1.16 µM. The GI50 (SK-MEL-28 melanoma) was 0.498 µM, the TGI (SK-MEL-28 melanoma) was 1.85 µM and the GI50 (786-0 renal) was 0.189 µM. For the same molecule, the TGI (786-0 renal) was 0.762 µM, the GI50 (A549 NSCLC) was 0.272 µM and the TGI (A549 NSCLC) was 1.58 µM. For the same molecule, the GI50 (CAKI-1 renal) was 0.221 µM, the TGI (CAKI-1 renal) was 0.787 µM and the GI50 (NCI-H226 lung) was 0.0518 µM. It also gave a TGI (NCI-H226 lung) of 0.78 µM, a GI50 (RPMI-8226 leukemia) of 0.333 µM and a TGI (RPMI-8226 leukemia) of 2.07 µM. For the same molecule, the GI50 (SNB-19 CNS) was 0.446 µM, the TGI (SNB-19 CNS) was 1.35 µM and the GI50 (HCT-15 colon) was 0.172 µM. The TGI (HCT-15 colon) was 0.564 µM, the GI50 (SR leukemia) was 0.208 µM and the TGI (SR leukemia) was 0.712 µM. For the same molecule, the GI50 (ACHN renal) was 0.224 µM and the TGI (ACHN renal) was 1.2 µM.
